US20230273228A1, “Diagnostic Method and Compounds for the Treatment of Infections Caused by a Pathogen” (priority 2020, published 2023)

Tests used:
Type in all cases: in vivo, Golden Syrian Hamster
SARS-CoV-2 [1] = assay: Viral load determination by quantitative real-time RT-PCR in tissues of infected hamsters
TNF-α = assay: Cytokine/chemokine profile by qRT-PCR in lung tissues and blood of SARS-CoV-2 infected hamsters
SARS-CoV-2 [2] = assay: Body weight variation of hamsters infected with SARS-CoV-2

`CC/C=C\C/C=C\C[C@H](O)\C=C/C=C/C=C/[C@H](O)C/C=C\CCC(=O)OC` [MaR1 ME, Methyl 7R,14S-dihydroxy-4Z,8E,10E,12Z,16Z,19Z-docosahexaenoate] was tested, and the “Impact on viral load in tissues” value (SARS-CoV-2 [1]) was “significant impact”, the “Viral load in the lungs” value (SARS-CoV-2 [1]; after a few days of treatment) was “significantly reduced” and the “Impact on the chemokine and cytokine profile in infected animals” value (TNF-α) was “significant impact”. The “Levels of TNF-α in the lungs compared with untreated animals” value (TNF-α; lung tissue, 4, 7 and 14 dpi) was “significantly lower”, the “Improvement in weight loss, dependence on dose” value (SARS-CoV-2 [2]; MaR1 ME 0.05 and 0.5 mg/kg i.p. twice daily) was “dose dependent” and the “Loss of body weight compared with infected untreated animals” value (SARS-CoV-2 [2]; SARS-CoV-2 infected hamsters, MaR1 ME 0.05 and 0.5 mg/kg i.p., Lipinova 1.20 mg/kg by gavage, twice daily) was “decreases significantly”. The Body weight loss (SARS-CoV-2 [2]; highest dose of MaR1 ME (0.5 mg/kg i.p. twice daily from day 2 post inoculation), SARS-CoV-2 infected hamsters) was “less than 5%”.
